This passage reports Kd results from article PMC4726814, “Molecular Characterization of E-Type Prostanoid Receptor 4 (EP4) from Ayu (Plecoglossus altivelis) and Its Functional Analysis in the Monocytes/Macrophages” (PLoS ONE, 2016).

Structures are written as SMILES.

This assay deals with T1, PaEP4L (Plecoglossus altivelis, UniProt A0A142DUN0).
T1 construct: gene EP4; MG1 insect cell membranes
As to the kind of experiment: [3H]-PGE2 saturation binding to MG1 insect cell membranes, Scatchard.

T1 sequence (A0A142DUN0 1-459): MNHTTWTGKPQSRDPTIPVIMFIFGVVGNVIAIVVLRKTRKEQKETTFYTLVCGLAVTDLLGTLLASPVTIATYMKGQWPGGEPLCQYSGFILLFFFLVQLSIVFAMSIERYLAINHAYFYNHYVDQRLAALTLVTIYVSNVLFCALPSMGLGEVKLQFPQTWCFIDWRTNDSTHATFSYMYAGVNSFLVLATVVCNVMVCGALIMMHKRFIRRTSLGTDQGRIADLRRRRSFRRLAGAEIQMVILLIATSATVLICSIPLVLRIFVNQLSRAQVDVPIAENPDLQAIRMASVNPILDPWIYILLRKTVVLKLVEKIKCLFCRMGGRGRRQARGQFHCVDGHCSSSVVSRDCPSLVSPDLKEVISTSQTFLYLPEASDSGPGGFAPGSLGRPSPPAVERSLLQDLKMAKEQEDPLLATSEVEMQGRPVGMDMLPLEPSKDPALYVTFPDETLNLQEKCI

One may read the Kd as the equilibrium constant for the complex coming apart. Lower therefore signals tighter binding. `CCCCC[C@H](O)/C=C/[C@H]1[C@H](O)CC(=O)[C@@H]1C/C=C\CCCC(=O)O` [PGE2] came in with an equilibrium dissociation constant (Kd) of 120 nM.
